This note sets out measurements from PubChem BioAssay AID179 (DTP/NCI, 2004).

Active and inactive are the calls of the source.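 How the source made its calls: active means compounds giving half or more protection of infected cells from virus-caused growth loss, again on retest; inactive means the rest.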

The test system of the assay is CEM cells HIV-1 protection, formazan growth assay. Briefly: NCI AIDS Antiviral Assay. The settings on record: for IC50: measured here: growth of uninfected CEM cells. Put shortly: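 Steps: treat uninfected and HIV-1-infected human CEM cells at five drug levels; quantify growth by soluble formazan; retest any compound reaching 50% protection; classify actives from the retest.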

On to `CC1(C)CNC[C@@]2(C)OCCOCCOCCO[C@](C)(CNCC(C)(C)NC2=O)C(=O)N1`, for which the EC50 was above 200 µM and the IC50 was above 200 µM.

`CCN1C[C@]2(COC)CCC(O)C34[C@@H]5C[C@@H]6C(O)[C@@H]5[C@](O)(C[C@@H]6OC)[C@@](O)([C@H]13)[C@@H](OC)[C@@H]42` (some centres not stated): the outcome was inactive.

For the molecule `CC1(C)OCC(CO)(Nc2nc(N3CC3)nc(N3CC3)n2)CO1`, the EC50 is above 200 µM and the IC50 was determined as 0.741 µM.

`COC(=O)CN1C(=O)c2cccc3cc([N+](=O)[O-])cc(c23)C1=O`: the EC50 is above 200 µM and the IC50 came out at 21.9 µM.

Take `CCOC(=O)C1(C(=O)OCC)CCCN1C(=O)[C@H](CNC(=O)OC(C)(C)C)NC(=O)OCc1ccccc1`: the outcome was inactive.

On to `Cc1n[nH]c(=O)n1/N=C/c1ccncc1`, for which the EC50 is above 200 µM and the IC50 was determined as 102 µM.

With `Cc1nn(C(=O)CC(=O)Nc2ccccc2Cl)c(C)c1N=Nc1ccccc1Cl`, the result was inactive.

`[Pt].c1ccc([PH+](c2ccccc2)c2ccccc2)cc1.c1ccc([PH+](c2ccccc2)c2ccccc2)cc1.c1ccc([PH+](c2ccccc2)c2ccccc2)cc1.c1ccc([PH+](c2ccccc2)c2ccccc2)cc1`: the EC50 is above 11 µM and the 50% inhibitory concentration (IC50) is above 11 µM.

As for `C1=NCCNCCN=Cc2ccc(cc2)OCc2cccc(n2)COc2ccc1cc2`, the EC50 was above 100 µM and the IC50 was above 100 µM.

With `N#C/C(=C\N1CC(=O)NC1=S)C(N)=O`, the EC50 is above 200 µM and the IC50 was above 200 µM.

On to `CC1OC2CC(=O)OC2C2=C1C(=O)c1c(O)cccc1C2=O` (configuration not stated), for which the EC50 is above 2 µM and the IC50 amounted to 0.0282 µM.

With `O=C(/C=C/c1ccc(O)cc1)c1ccc2c(c1)OCO2`, the EC50 is above 200 µM and the IC50 was 33.1 µM.

Turning to `CN1CCN(C)C12C=c1ccccc1=CC21CC1`, the result was inactive.

As for `COc1ccc(/C=C/c2ccnc3ccccc23)cc1`, the EC50 is 0.0631 µM and the IC50 came to 14.1 µM.

In the case of `O=c1n(-c2ccccc2)c(=O)n2n1C1C=CC2C2C(C1)C2(Cl)Cl` (configuration not stated), the result was inactive.

As for `CSCC1CC(c2ccc(Cl)cc2)=NO1` (configuration not stated), the EC50 was above 107 µM and the IC50 was above 107 µM.

On to `CN(C(=O)c1ccco1)C(=S)N1CCN(c2ccccc2)CC1`, for which the EC50 is above 110 µM and the IC50 stood at 30.2 µM.

Take `CN(C)/N=N/c1nc[nH]c1C(N)=O`: the EC50 is above 74.1 µM and the IC50 is 4.9 µM.

In the case of `CN(C)C1(C#N)CCC2(CC1)OCCO2`, the outcome was inactive.

As to `C[C@]12CCC3[C@@H](CCC4(C=N)CC(=O)CC[C@]34C)C1CC[C@@H]2O` (some centres not stated), the outcome was inactive.

Take `c1cc(C2=NCCO2)c2ccsc2c1`: the EC50 is above 200 µM and the IC50 turned out to be 155 µM.

For `COC1/C=C/OC2(C)Oc3c(C)c(O)c4c(O)c(c(/C=N/N5C(C)CN(Cc6ccc(C(C)(C)C)cc6)CC5C)c(O)c4c3C2=O)NC(=O)/C(C)=C\C=C\C(C)C(O)C(C)C(O)C(C)C(OC(C)=O)C1C` (configuration not stated), the EC50 was above 200 µM and the concentration for half-maximal inhibition (IC50) worked out at 12.3 µM.

As to `Cc1nc2[nH]c(=O)n(OS(=O)(=O)c3ccccc3)c(=O)c2s1`, the EC50 is above 200 µM and the IC50 was found to be 35.5 µM.

`Cc1cc2c(cc1C)C(=O)C1(C2)Cc2c(C)ccc(C)c2C1=O` (configuration not stated): the EC50 is above 100 µM and the IC50 is above 100 µM.

Turning to `CCN(CC)CCNc1ccc(Cl)cc1N`, the EC50 is above 200 µM and the IC50 amounted to 39.8 µM.

Regarding `[O-]c1nn(C2OC(CO)C(O)C2O)c2cccc[n+]12` (configuration not stated), the EC50 was above 933 µM and the IC50 was above 933 µM.

Regarding `COc1ccc2c(c1)[n+](=O)c(C(=O)C/C(=N\NC(=O)C[N+](C)(C)C)C(=O)Nc1cc(Cl)ccc1Cl)c(C)n2O`, the EC50 is above 1.23 µM and the IC50 is above 1.23 µM.

With `COC(CCC[N+](C)(C)C)CC[N+](C)(C)C` (configuration not stated), the EC50 was above 100 µM and the IC50 is above 100 µM.

On to `CN1C(=S)C(c2ccccc2)Sc2ccccc21` (configuration not stated), for which the EC50 was above 200 µM and the IC50 came to 42.7 µM.

Turning to `C/C(=N\NS(=O)(=O)c1ccccc1)c1ccc[n+]([O-])n1`, the outcome was inactive.

On to `CCCCCC(/C=N/NC(N)=S)C(O)(C(F)(F)F)C(F)(F)F` (configuration not stated), for which the EC50 is above 200 µM and the IC50 was 30.2 µM.

Turning to `O=c1c2nn3c(=O)n(-c4ccccc4)c(=O)c3nn2c(=O)n1-c1ccccc1`, the EC50 is above 200 µM and the concentration for half-maximal inhibition (IC50) was above 200 µM.

`O=C(Nc1ccccc1C(=O)O)C(=Cc1ccccc1O)NC(=O)c1ccccc1`: the EC50 was above 200 µM and the IC50 is above 200 µM.

As for `CCCc1cc(=O)oc2c3c(c4c(c12)OC(C)(C)C=C4)O[C@H](C)[C@@H](C)C3O` (some centres not stated), the EC50 is 2.4 µM and the IC50 stood at 11.7 µM.

With `Cc1nn(-c2ccccn2)c2ncnc(N)c12`, the EC50 was above 200 µM and the IC50 stood at 162 µM.

As to `C=CC(=O)N1C/C(=C\c2ccc(Cl)cc2)C(=O)/C(=C/c2ccc(Cl)cc2)C1`, the EC50 was above 0.2 µM and the IC50 came to 0.0708 µM.

For the molecule `CC(C)N1C(C)[C@@H](c2ccccc2)O[P@]1(=O)CC1=CCCCC1` (some centres not stated), the result was inactive.

Consider `Nc1nc2ncn(COC(CO)CO)c2c(=O)[nH]1`, for which the EC50 is above 200 µM and the IC50 is above 200 µM.

For the molecule `CC1=C2C(=O)NN=C2CCN1c1ccc(Br)cc1`, the EC50 is above 200 µM and the IC50 was 34.7 µM.

Take `ClCc1c(-c2ccccc2)nn(-c2ccccc2)c1CCl`: the EC50 was above 200 µM and the concentration for half-maximal inhibition (IC50) was determined as 6.17 µM.

In the case of `NNC(=O)/C(=C/c1ccc(Cl)c(Cl)c1)NC(=O)c1ccccc1`, the EC50 was above 141 µM and the IC50 was above 141 µM.

As for `N=C(OC1CCCCC1)N1CCOCC1`, the EC50 is above 200 µM and the IC50 is above 200 µM.

With `NC(N)=NS(=O)(=O)c1ccc(NC(=O)c2cccc3cc4ccccc4nc23)cc1`, the EC50 is above 53.7 µM and the IC50 was 16.2 µM.

On to `CS(=O)(=O)OCC1OC2OC3(CCCCC3)OC2C1OCc1ccccc1` (configuration not stated), for which the EC50 is above 200 µM and the IC50 is 105 µM.

Turning to `O=C(NCc1ccccc1)C1C(=O)C(=O)N(Cc2ccccc2)C1=O` (configuration not stated), the EC50 is above 269 µM and the IC50 was above 269 µM.

With `O=S(=O)(O)CC(O)CSSCC(O)CS(=O)(=O)O` (configuration not stated), the EC50 is above 200 µM and the IC50 is above 200 µM.

In the case of `c1ccc2c3c([nH]c2c1)[C@H]1C2CCCCN2CN1CC3` (some centres not stated), the EC50 is above 676 µM and the IC50 came out at 214 µM.

Regarding `Cc1cn2c(=O)c3ncn(C4OC(CO)C(O)C4O)c3n(C)c2n1` (configuration not stated), the outcome was inactive.

For `O=C1NC(=O)c2ccc([N+](=O)[O-])c3cccc1c23`, the EC50 was above 0.871 µM and the IC50 was determined as 0.1 µM.

As to `Cc1cc(=O)[nH]c(NNC(C#N)c2ccc(O)cc2)n1` (configuration not stated), the EC50 was above 182 µM and the IC50 was above 182 µM.

For `CCCCN1C(=O)N(c2ccc(OCC)cc2)C2N(CCCC)C1C(C)(C)C2(C)C` (configuration not stated), the EC50 was above 21.9 µM and the IC50 is above 21.9 µM.

Consider `COC(=O)c1ccc(CSc2ccccc2C(=O)O)cc1`, for which the EC50 was above 603 µM and the IC50 is 427 µM.

For the molecule `C1=NC(N(Cc2ccccc2)Cc2ccccc2)N(Cc2ccccc2)N1` (configuration not stated), the EC50 was above 52.5 µM and the concentration for half-maximal inhibition (IC50) turned out to be 32.4 µM.

As to `Clc1cccc(C2N3CCCCC3[C@@H]3c4[nH]c5ccccc5c4CCN23)c1` (some centres not stated), the EC50 is above 13.8 µM and the IC50 is above 13.8 µM.

For the molecule `CCC(=O)n1c(=O)n(-c2ccc([N+](=O)[O-])cc2)c(=O)n1C(=O)CC`, the EC50 is above 200 µM and the IC50 was above 200 µM.

`CN1C(=O)C[N+]([O-])=C(c2ccccc2)c2cc(Cl)ccc21`: the EC50 is above 120 µM and the IC50 was above 120 µM.

For the molecule `CN(CCc1ccccn1)C(=S)N/N=C/c1ccccn1`, the EC50 was above 0.2 µM and the IC50 amounted to 0.0251 µM.

Turning to `Nc1ccc(S(=O)(=O)S(=O)(=O)c2ccc(N)cc2)cc1`, the EC50 is above 200 µM and the IC50 came out at 112 µM.

For `O=C(CC1(O)C(=O)Nc2ccc([N+](=O)[O-])cc21)c1ccc(Br)cc1` (configuration not stated), the EC50 is above 41.7 µM and the IC50 is above 41.7 µM.

As for `Cc1ncc[pH]1` (configuration not stated), the EC50 is above 138 µM and the IC50 is above 138 µM.

Take `Cn1c(=O)c(Br)c(C=O)n(CCO[N+](=O)[O-])c1=O`: the EC50 was above 200 µM and the IC50 was 1.78 µM.

Take `CC(/C=C/C(=O)c1sc(-n2nc(-c3ccccc3)cc2-c2ccccc2)nc1C)=C\c1ccccc1`: the EC50 was above 27.5 µM and the 50% inhibitory concentration (IC50) was above 27.5 µM.

On to `O=C(O)CSc1n[nH]c(-c2ccccc2)n1`, for which the EC50 was above 30.9 µM and the IC50 turned out to be 7.59 µM.

In the case of `Fc1cccc2c1[nH]c1c2ncc2[nH]c3ccccc3c21`, the EC50 was above 20 µM and the IC50 amounted to 6.92 µM.

As for `CC(=O)OCCn1cnc2c(NCC=C(C)C)ncnc21`, the EC50 was above 200 µM and the IC50 is above 200 µM.

Take `CN1CCCN2CCN(C)CCCN(CC1)CC2`: the EC50 was above 977 µM and the IC50 was above 977 µM.

Consider `O=C(O)c1cccc(Nc2ccccc2C(=O)O)c1`, for which the EC50 is above 513 µM and the half-inhibitory concentration (IC50) was above 513 µM.

`CCOC(=O)C1([N+](=O)[O-])[C@@H]2CCCC[C@@H]21` (some centres not stated): the EC50 was above 316 µM and the IC50 was above 316 µM.

On to `CC(=O)N1CC(C)(C)c2c1cc(C)c(O)c2C`, for which the EC50 is above 200 µM and the IC50 is 132 µM.

`CN(C)CCOC1(CC2CCCCC2)CCC(C(C)(C)C)CC1` (configuration not stated): the EC50 was above 200 µM and the IC50 was 8.13 µM.

Turning to `COc1ccc(C(C)NNC(=O)c2ccncc2)cc1F` (configuration not stated), the EC50 is above 200 µM and the IC50 was determined as 112 µM.

Consider `Cn1c(=O)c2c(nc3[nH]c(=O)c(Br)cn32)n(C)c1=O`, for which the EC50 was above 100 µM and the 50% inhibitory concentration (IC50) worked out at 20.4 µM.

For the molecule `C=CCn1c(=S)sc2c(=O)[nH]cnc21`, the EC50 is above 1120 µM and the half-inhibitory concentration (IC50) was determined as 195 µM.

Take `C=CC[P@]1(=O)O[C@H](c2ccccc2)C(C)N1C(C)C` (some centres not stated): the result was inactive.
